“And” between values parts separate entries of the source, which are not always exact repeats. Equal entries are not always repeated. Where two headings read alike, the source gives them in different places.
What was measured:
HCC-1954 cells = test: In vitro cytotoxicity, SRB assay, 72 h dose-response; type: cell-based; details: Homo sapiens, HCC1954, 72 h, HER2+; 72 h; read-out: IC50
Excerpt: (§1) Nature Protocols, 1, 1112-1 116.

MCF-7 cells = test: as above; type: cell-based; details: Homo sapiens, MCF7, 72 h, HER2−; 72 h; read-out: IC50
Excerpt: as §1

MDA-MB-231 cells = test: as above; type: cell-based; details: Homo sapiens, MDA-MB-231, 72 h, HER2−; 72 h; read-out: IC50
Excerpt: as §1

SK-BR-3 cells = test: as above; type: cell-based; details: Homo sapiens, SK-BR-3, 72 h, HER2+; 72 h; read-out: IC50
Excerpt: All tumor cell lines used in this study were obtained from the American Type Culture Collection (ATCC), unless otherwise indicated; BT-474 (ATCC HTB-20, Breast Ductal Carcinoma), SK-BR-3 (ATCC HTB-30, Breast Adenocarcinoma) and HCC-1954 (ATCC CRL-2338, Breast Ductal Carcinoma), all HER2+; MDA-MB-231 (ATCC HTB-26, Breast Adenocarcinoma) and MCF-7 (ATCC HTB-22 Breast Adenocarcinoma, pleural effusion), all HER2-; SK-OV-3 (ATCC HTB-77, Ovary Adenocarcinoma), HER2+; NB-4 (Acute Promyelocytic Leukemia, APL, CD13+, M. Lanotte et al. (1991) NB4, a maturation inducible cell line with t(15;17) marker isolated from a human acute promyelocytic leukemia (M3). […] Cells were maintained at 37° C., 5% CO 2 and 95% humidity in Dulbecco's Modified Eagle's Medium (DMEM) (for MCF and MDA-MB-231 cells), RPMI-1640 (for SK-BR-3, HCC-1954, NB-4, U937, Raji, RPMI-8226, Karpas-299, MOLT-4, Raji-clone #10 and Raji-clone #18 cells), RPMI-1640+1% ITS (for BT-474 cells) or McCOyS (for SK-OV-3 cells), all media supplemented with 10% Fetal Calf Serum (FCS) and 100 units/mL penicillin and streptomycin.
For adherent cells: A colorimetric assay using sulforhodamine B (SRB) was adapted for quantitative measurement of cell growth and cytotoxicity, as described in V. Vichai and K. Kirtikara (2006) Sulforhodamine B colorimetric assay for cytotoxicity screening. […] Briefly, cells were seeded in 96-well microtiter plates and allowed to stand for 24 hours in drug-free medium before treatment with vehicle alone or the indicated compounds for 72 hours. For quantification, cells were washed twice with phosphate buffered saline (PBS), fixed for 15 min in 1% glutaraldehyde solution, rinsed twice with PBS, stained in 0.4% SRB-1% acetic acid solution for 30 min, rinsed several times with 1% acetic acid solution and air-dried. SRB was then extracted in 10 mM trizma base solution and the optical density measured at 490 nm in a microplate spectrophotometer. Cell survival was expressed as percentage of control, untreated cell survival.

[1] = test system: HCC-1954, SK-BR-3, MDA-MB-231 and MCF-7 cells; test: In vitro cytotoxicity, whole breast cancer cell panel
Excerpt: (§2) All tumor cell lines used in this study were obtained from the American Type Culture Collection (ATCC), unless otherwise indicated; BT-474 (ATCC HTB-20, Breast Ductal Carcinoma), SK-BR-3 (ATCC HTB-30, Breast Adenocarcinoma) and HCC-1954 (ATCC CRL-2338, Breast Ductal Carcinoma), all HER2+; MDA-MB-231 (ATCC HTB-26, Breast Adenocarcinoma) and MCF-7 (ATCC HTB-22 Breast Adenocarcinoma, pleural effusion), all HER2-; SK-OV-3 (ATCC HTB-77, Ovary Adenocarcinoma), HER2+; NB-4 (Acute Promyelocytic Leukemia, APL, CD13+, M. Lanotte et al. (1991) NB4, a maturation inducible cell line with t(15;17) marker isolated from a human acute promyelocytic leukemia (M3). Blood 77, 1080-1086), (CD13+) and U937 (ATCC CRL-1 593.2, Histiocytic Lymphoma, CD13+ and CD4+); Raji (ATCC CCL-86, Burkitt's Lymphoma) (CD13−, CD20+, CD5−, and CD4−); RPMI-8226 (ATCC CRM-CCL-155, Multiple Myeloma) (CD13−, CD20−, CD5− and CD4−); Karpas-299 (DSMZ ACC-31, Non-Hodgkin's Lymphoma) (CD20−, CD5+, and CD4+); MOLT-4 (ATCC CRL-1 582, Acute Lymphoblastic Leukemia, CD5+). In addition, the two Raji cell (ATCC CCL-86, Burkitt's Lymphoma) clones used in this study Raji-clone #10 (high CD5 expression) and Raji-clone18 (null CD5 expression), were provided by Dr. Juan M. Zapata (Instituto de Investigaciones Biomedicas “Alberto Sols”, CSIC-UAM, Madrid, Spain). Cells were maintained at 37° C., 5% CO 2 and 95% humidity in Dulbecco's Modified Eagle's Medium (DMEM) (for MCF and MDA-MB-231 cells), RPMI-1640 (for SK-BR-3, HCC-1954, NB-4, U937, Raji, RPMI-8226, Karpas-299, MOLT-4, Raji-clone #10 and Raji-clone #18 cells), RPMI-1640+1% ITS (for BT-474 cells) or McCOyS (for SK-OV-3 cells), all media supplemented with 10% Fetal Calf Serum (FCS) and 100 units/mL penicillin and streptomycin.
For adherent cells: A colorimetric assay using sulforhodamine B (SRB) was adapted for quantitative measurement of cell growth and cytotoxicity, as described in V. Vichai and K. Kirtikara (2006) Sulforhodamine B colorimetric assay for cytotoxicity screening. Nature Protocols, 1, 1112-1 116. Briefly, cells were seeded in 96-well microtiter plates and allowed to stand for 24 hours in drug-free medium before treatment with vehicle alone or the indicated compounds for 72 hours. For quantification, cells were washed twice with phosphate buffered saline (PBS), fixed for 15 min in 1% glutaraldehyde solution, rinsed twice with PBS, stained in 0.4% SRB-1% acetic acid solution for 30 min, rinsed several times with 1% acetic acid solution and air-dried. SRB was then extracted in 10 mM trizma base solution and the optical density measured at 490 nm in a microplate spectrophotometer. Cell survival was expressed as percentage of control, untreated cell survival.
(§3) The IC50 value refers to the concentration of compound inducing a 50% of cell death as compared to the control cell survival.
Standard dose-response (DR) curves for 72 hours were performed.

[2] = test system: Raji, RPMI-8226 and Karpas-299 cells; test: In vitro cytotoxicity, whole CD20 cell panel
Excerpt: as §2
For suspension cells: A standard metabolic assay using MTT (3-(4,5-Dimethylthiazol-2-yl)-2,5-diphenyltetrazolium bromide) was adapted for quantitative measurement of cell growth and cytotoxicity, as described in T. Mosmann (1983) Rapid colorimetric assay for cellular growth and survival: Application to proliferation and cytotoxicity assays. J. Immunol. Meth., 65, 55-63. Briefly, MTT solution was added to the cell cultures at a final concentration of 0.5 mg/mL, and incubated for 1 to 4 hours at 37° C. until formazan crystals are formed. Culture medium is carefully removed from the cell cultures and formazan crystals resuspended in 100 μl DMSO. After mixing to assure solubilization, the quantity of formazan (presumably directly proportional to the number of viable cells) is measured by recording changes in absorbance at 570 nm using a plate reading spectrophotometer. Cell survival was expressed as percentage of control, untreated cell survival.
as §3
The in vitro cytotoxic activity of ADC12 along with the parent cytotoxic Compounds 1, 4, and 40, was evaluated was assayed against different human cancer cell lines expressing or not the CD20 antigen, including Raji (CD20 positive cells); RPMI-8226 and Karpas-299 (CD20 negative cells). Standard dose-response (DR) curves for 72 hours were performed.

[3] = Homo sapiens, read-out: IC50 values along the different cell lines tested (range), four breast cell lines
[4] = Homo sapiens, read-out: mean IC50 value across the whole cell panel, four breast cell lines
[5] = read-out: mean IC50 value across the whole cell panel, four breast cell lines

In the case of C/C=C\C[C@@H](C/C=C\NC(=O)[C@@H](NC(=O)\C=C/C=C\C(C)=C\[C@H](C)[C@@H]1CC=C(OC)C(=O)O1)C(C)(C)C)OC(=O)NCCCNC(=O)CCCCCN1C(=O)C=CC1=O [Compound 5], the IC50 (HCC-1954 cells) is reported as 0.0195 µg/mL and 23.8 nM, the IC50 (MCF-7 cells) is reported as 0.0775 µg/mL and 94.1 nM and the IC50 (MDA-MB-231 cells) is reported as 0.057 µg/mL and 69.4 nM. The IC50 (SK-BR-3 cells) was 0.019 µg/mL and 23.2 nM, the IC50 [1, 3] was 0.019 µg/mL to 0.077 µg/mL and 23.2 nM to 94.1 nM and the IC50 [1, 4] was 0.0433 µg/mL and 52.6 nM.

With C/C=C\C[C@@H](C/C=C\NC(=O)[C@@H](NC(=O)\C=C/C=C\C(C)=C\[C@H](C)[C@@H]1CC=C(OC)C(=O)O1)C(C)(C)C)OC(=O)NCCCN [Compound 8] the IC50 (HCC-1954 cells) was 0.0054 µg/mL and 8.59 nM, the IC50 (MCF-7 cells) was 0.00675 µg/mL and 10.7 nM and the IC50 (MDA-MB-231 cells) was 0.00655 µg/mL and 10.4 nM. For the same molecule, the IC50 (SK-BR-3 cells) was 0.0034 µg/mL and 5.41 nM, the IC50 [1, 3] was 0.0034 µg/mL to 0.00675 µg/mL and 2.94 nM to 15.1 nM and the IC50 [1, 4] was 0.00553 µg/mL and 8.79 nM. For the same molecule, the “mean IC50 value across the whole cell panel” value ([1]; four breast cell lines) was 5.45 ng/mL and the IC50 [1, 5] was 8.67 nM.

In the case of COC1=CC[C@@H]([C@@H](C)/C=C(C)/C=C\C=C/C(=O)N[C@H](C(=O)N/C=C\C[C@H](C/C=C(\C)Cl)OC(=O)NCCCS)C(C)(C)C)OC1=O [Compound 15], the IC50 (HCC-1954 cells) is reported as 0.000675 µg/mL and 0.994 nM, the IC50 (MCF-7 cells) is reported as 0.00145 µg/mL and 2.14 nM and the IC50 (MDA-MB-231 cells) is reported as 0.00149 µg/mL and 2.19 nM. For the same molecule, the IC50 (SK-BR-3 cells) was 0.00048 µg/mL and 0.706 nM, the IC50 [1, 3] was 0.00048 µg/mL to 0.00149 µg/mL and 0.706 nM to 2.19 nM and the IC50 [1, 4] was 0.00103 µg/mL and 1.51 nM. For the same molecule, the “decrease of cytotoxic activity as compared to Compound 40” value ([1]; thiol containing tail) was “about 8 fold”.

C/C=C\C[C@@H](C/C=C\NC(=O)[C@@H](NC(=O)\C=C/C=C\C(C)=C\[C@H](C)[C@@H]1CC=C(OC)C(=O)O1)C(C)(C)C)OC(=O)NCCCNC(=O)CCS [Compound 18] was tested, and the IC50 (HCC-1954 cells) was 0.00805 µg/mL and 11.2 nM, the IC50 (MCF-7 cells) was 0.0185 µg/mL and 25.8 nM and the IC50 (MDA-MB-231 cells) was 0.0115 µg/mL and 16 nM. The IC50 (SK-BR-3 cells) was 0.0044 µg/mL and 6.14 nM, the IC50 [1, 3] was 0.0044 µg/mL to 0.0185 µg/mL and 6.14 nM to 25.8 nM and the IC50 [1, 4] was 0.0106 µg/mL and 14.8 nM.

For CC#CC[C@@H](C/C=C\NC(=O)[C@@H](NC(=O)\C=C/C=C\C(C)=C\[C@H](C)[C@@H]1CC=C(OC)C(=O)O1)C(C)(C)C)OC(=O)NCCCN [Compound 24], the IC50 (HCC-1954 cells) was 0.018 µg/mL and 28.7 nM, the IC50 (MCF-7 cells) was 0.0165 µg/mL and 26.3 nM and the IC50 (MDA-MB-231 cells) was 0.0175 µg/mL and 27.9 nM. For the same molecule, the IC50 (SK-BR-3 cells) was 0.009 µg/mL and 14.4 nM, the “decrease of cytotoxic activity as compared to Compound 41” value ([1]; 1,3-propylenediamine group) was “about 2 logs” and the IC50 ([1]; Homo sapiens, read-out: IC50 values across the different cell lines tested (range), four breast cell lines) was 9 to 18 ng/mL. For the same molecule, the IC50 [1, 3] was 14 nM to 28 nM and 0.009 µg/mL to 0.018 µg/mL, the IC50 [1, 4] was 0.015 µg/mL and 24 nM and the “mean IC50 value across the whole cell panel” value ([1]; four breast cell lines) was 24 nM.

For CC#CC[C@@H](C/C=C\NC(=O)[C@@H](NC(=O)\C=C/C=C\C(C)=C\[C@H](C)[C@@H]1CC=C(OC)C(=O)O1)C(C)(C)C)OC(=O)NCCCNC(=O)CCCCCN1C(=O)C=CC1=O [Compound 25], the IC50 (HCC-1954 cells) was 0.044 µg/mL and 53.7 nM, the IC50 (MCF-7 cells) was 0.053 µg/mL and 64.6 nM and the IC50 (MDA-MB-231 cells) was > 0.1 µg/mL and > 122 nM. For the same molecule, the IC50 (SK-BR-3 cells) was 0.0255 µg/mL and 31.1 nM, the IC50 [1, 3] was 0.025 µg/mL to 0.053 µg/mL and 31 nM to 65 nM and the IC50 [1, 4] was 41 ng/mL. The “mean IC50 value across the whole cell panel” value ([1]; four breast cell lines) was 49 nM.

In the case of CC#CC[C@@H](C/C=C\NC(=O)[C@@H](NC(=O)\C=C/C=C\C(C)=C\[C@H](C)[C@@H]1CC=C(OC)C(=O)O1)C(C)(C)C)OC(=O)NCCCNC(=O)CCS [Compound 27], the IC50 (HCC-1954 cells) is reported as 0.0165 µg/mL and 23.1 nM, the IC50 (MCF-7 cells) is reported as 0.039 µg/mL and 54.6 nM and the IC50 (MDA-MB-231 cells) is reported as 0.0345 µg/mL and 48.3 nM. The IC50 (SK-BR-3 cells) was 0.0105 µg/mL and 14.7 nM, the IC50 [1, 3] was 0.0105 µg/mL to 0.039 µg/mL and 15 nM to 55 nM and the IC50 [1, 4] was 0.025 µg/mL and 35 nM.

For CC#CC[C@@H](C/C=C\NC(=O)[C@@H](NC(=O)\C=C/C=C\C(C)=C\[C@H](C)[C@@H]1CC=C(OC)C(=O)O1)C(C)(C)C)OC(N)=O [Compound 41], the IC50 (HCC-1954 cells) was 0.000104 µg/mL and 0.183 nM, the IC50 (MCF-7 cells) was 0.000265 µg/mL and 0.465 nM and the IC50 (MDA-MB-231 cells) was 0.00018 µg/mL and 0.316 nM. For the same molecule, the IC50 (SK-BR-3 cells) was 0.00011 µg/mL and 0.193 nM, the IC50 [1, 3] was 0.075 to 0.14 ng/mL and the IC50 [1, 4] was 0.00016 µg/mL and 0.29 nM. The IC50 [1, 5] was 0.19 nM.

For “Rituximab: anti-CD20 monoclonal antibody [reference compound]”, the “cytotoxic activity” value ([2]; 50 μg/mL) was “virtually inactive” and the “cytotoxic activity in DR curves” value ([2]; 5.0E+01 to 2.62E-05 μg/mL) was “rather inactive”.

— patent publication US12410148B2, “Antibody drug conjugates” (Pharma Mar, S.A., priority 2013, dated 2025)
